The values that follow come from patent US6472369B1, “Anticancer compounds and methods” (The Regents of the University of Michigan, priority 1996, dated 2002).

The test system of assay [1] is neonatal, human fibroblasts. The experiment in a line: Fibroblast invasion of SU-ECM basement membranes. To be noted: for stimulation of fibroblast invasion of basement membranes in vitro: in the presence of serum or under serum-free conditions. It counts as cell-based. As to the method: (§1) Adult Strongylocentrotus purpuratus sea urchins were obtained from Pacific BioMarine, and their embryos were cultured to the early pluteus stage in artificial sea water at 15° C. SU-ECM were prepared from them by treatment with nonionic detergent and strerilized by dilution in the appropriate media.
Cells were harvested by rinsing in Hanks' balanced salt solution, followed by brief treatment with 0.25% trypsin, 0.02% EDTA, and pelleting and resuspension in the appropriate medium with or without 5% FCS at a density of about 50,000 cells per ml. When appropriate, purified bovine plasma fibronectin (Sigma), purified 120 kDa chymotryptic fragment (Gibco BRL), PHSRN (SEQ ID NO:1) or PHSCN (SEQ ID NO:86) peptides (synthesized at the Biomedical Research Core Facilities of the University of Michigan), or GRGDSP (SEQ ID NO:83) or GRGESP (SEQ ID NO:84) peptides (Gibco BRL) were added to the resuspended cells prior to placement of the cells on SU-ECM. In each well of a plate used for an invasion assay, SU-ECM were placed in 0.5 ml of the appropriate medium, and 0.5 ml of the resuspended cells dropped on their exterior surfaces. Invasion assays were incubated 1 to 16 hours prior to assay. […]
Invasion assays were coded and scored blindly by microscopic examination under phase contrast at 200- and 400-fold magnification. Each cell contacting an SU-ECM was scored for its position relative to the exterior or interior surfaces. […] The minimum viability of the cells in each assay was always ascertained at the time of assay by determining the fraction of spread, adherent cells on the bottom of each well scored.
An invasion frequency is defined as the fraction of cells in contact with basement membranes which were located in their interiors at the time of assay. […] Invasion frequencies were determined multiple times for each cell type assayed. For each type of cell assayed the mean and standard deviation of the invasion frequencies were calculated. […]

Assay [2] deals with metastatic DU-145 prostate cancer cells. The experiment in a line: SU-ECM invasion assay, DU-145 prostate cancer cells. The following applies: DU-145 cells. It is filed as cell-based, human.
The test system of assay [3] is metastatic SUM-52 PE breast cancer cells. Put plainly: SU-ECM invasion assay, SUM-52 PE breast cancer cells. It is filed as cell-based, human. The following applies: SUM-52 cells. How it is done:
Human breast carcinoma cell lines SUM 52 PE and SUM 44 PE were originally cultured from the pleural effusions of patients with metastatic breast cancer; and SUM 102 was cultured from a primary, microinvasive breast carcinoma (Ethier, S. P., Mahack, M. L., Gullick, W. J., Frank, T. S., and Weber, B. L. Differential isolation of normal luminal mammary epithelial cells and breast cancer cells from primary and metastatic sites using selective media. Cancer Res. 53: 627-635).
as §1
(§2) Cells were harvested by rinsing in Hanks' balanced salt solution, followed by brief treatment with 0.25% trypsin, 0.02% EDTA, and pelleting and resuspension in the appropriate medium with or without 5% FCS at a density of about 50,000 cells per ml. When appropriate, purified bovine plasma fibronectin (Sigma), purified 120 kDa chymotryptic fragment (Gibco BRL), PHSRN (SEQ ID NO:1) or PHSCN (SEQ ID NO:86) peptides (synthesized at the Biomedical Research Core Facilities of the University of Michigan), or GRGDSP (SEQ ID NO:83) or GRGESP (SEQ ID NO:84) peptides (Gibco BRL) were added to the resuspended cells prior to placement of the cells on SU-ECM. In each well of a plate used for an invasion assay, SU-ECM were placed in 0.5 ml of the appropriate medium, and 0.5 ml of the resuspended cells dropped on their exterior surfaces. Invasion assays were incubated 1 to 16 hours prior to assay. If some circumstances, invasion assays were fixed in phosphate-buffered saline (PBS) with 2% formaldehyde for 5 minutes at room temperature, then rinsed into PBS.
(§3) Invasion assays were coded and scored blindly by microscopic examination under phase contrast at 200- and 400-fold magnification. Each cell contacting an SU-ECM was scored for its position relative to the exterior or interior surfaces. A cell was judged to have invaded if it was located on an interior surface below the focal plane passing through the upper surface of the SU-ECM, but above the focal plane passing through its lower surface. The minimum viability of the cells in each assay was always ascertained at the time of assay by determining the fraction of spread, adherent cells on the bottom of each well scored.
(§4) An invasion frequency is defined as the fraction of cells in contact with basement membranes which were located in their interiors at the time of assay. Thus, an invasion frequency of 1 denotes invasion by 100% of the cells in contact with basement membranes. Invasion frequencies were determined multiple times for each cell type assayed. For each type of cell assayed the mean and standard deviation of the invasion frequencies were calculated.
The method of Example 4 is employed, with the addition of varying concentrations of the PHSCN (SEQ ID NO:86) peptide.
Thus, the procedure in Example 4 provides a method for determining the inhibitory potential of the PHSCN (SEQ ID NO:86) peptide by comparing the number of cell invasions in the presence of the PHSCN (SEQ ID NO:86) peptide, with the number of cell invasions in the absence of the PHSCN (SEQ ID NO:86) peptide.

The subject of assay [4] is rat metastatic prostate carcinoma MatLyLu (MLL) cells. Put plainly: SU-ECM invasion assay, rat MatLyLu prostate carcinoma cells. It is filed as cell-based. To be noted: 10% FCS, FIG. 8. How it is done:
as §1, §2, §3, §4
The result of adding a varying concentration of the PHSCN (SEQ ID NO:86) peptide to PHSRN-induced (SEQ ID NO:1) MLL cells in serum free media is shown in FIG. 7B, where 100 ng per ml of PHSRN (SEQ ID NO:1) was used to induce invasion.
The procedure described in Example 10, was employed using SU-ECM substrates in 10% FCS and PHS(hC)N (SEQ ID NO:85) instead of PHSCN (SEQ ID NO:86). The result of adding varying concentrations of the PHS(hC)N (SEQ ID NO:85) peptide to serum-induced MLL cells indicates this peptide also has an inhibitory affect on cell invasion (see FIG. 8).

For assay [5], the system named is DU-145 metastatic prostate cancer cells. Put plainly: Invasion of fibronectin-depleted Matrigel by DU-145 cells. It is filed as cell-based, human. The following applies: 0.5 μl/ml peptide added to gelatin-panned Matrigel, FIG. 3. As to the method: This example describes a purification approach for removal of plasma fibronectin (and/or cellular fibronectin) from a substrate (Matrigel). In this example, removal was attempted by successive panning on gelatin. Eight wells of 24-well plate were coated with a 2% gelatin solution (the gelatin was obtained from Becton Dickinson Labware, Catalog #11868). The wells were filled with the gelatin solution which had been heated to 50 C. and incubated for 3 minutes. Then the solution was removed and the wells were allowed to air dry. Following drying, the wells were thoroughly rinsed with ddH2O followed by two rinses with PBS. The plates were again allowed to dry; thereafter they were stored at −20 C. until use. Matrigel was thawed on ice and then added to one of the wells of a gelatin-coated plate (between 800 μl and 1 ml of Matrigel was added to a well of a 24-well plate). The plate was placed in a bucket of ice in a 4 C. room on an orbital shaker where the Matrigel was incubated in the well for two hours (although overnight incubation can be used). Following the incubation, the Matrigel was moved from the first well to a second well and then incubated for two hours under the same conditions. This process was repeated until the Matrigel had been incubated on all eight wells of the gelatin-coated plate.
Following the depletion of the Matrigel, it was collected in Eppendorf tubes. […]

For another assay, the system named is keratinocytes. The experiment in a line: Keratinocyte invasion of serum-free SU-ECM. It is filed as cell-based. An excerpt:
Since, during wound reepithelialization, keratinocytes migrate through the connective tissue of the provisional matrix to “wall off” portions of the wound, as well as through the adjacent stroma, it is not surprising that they are also stimulated to migrate through the matrix of SU-ECM invasion substrates by the PHSRN (SEQ ID NO:1) sequence. […] Recruitment of fibroblasts or monocytes/macrophages whose paracrine, regulatory effects on a variety of neighboring cells are required for the early stages of wound healing is contemplated as a highly efficient and effective way to stimulate the cascade of regulatory interactions involved in wound healing because these cells will secrete the active factors or cytokines in the correct temporal sequences and spatial locations to ensure their optimal activities. Because it efficiently induces keratinocyte migration through the extracellular matrix in vitro, the PHSRN (SEQ ID NO:1) peptide is also likely to stimulate wound reepithelialization directly. The use of the PHSRN (SEQ ID NO:1) peptide or structurally related molecules according to the present invention is to stimulate the entry of cells such as fibroblasts and monocyte/macrophages into the provisional matrix of a wound, so that the entering cells themselves secrete the factors and cytokines active in inducing or potentiating wound healing. […]

Assay [6] relates to normal, neonatal fibroblasts. Put plainly: Invasion of gelatin- and antibody-depleted Matrigel by fibroblasts. It counts as cell-based. To be noted: Matrigel depleted by gelatin and antibody panning, FIG. 4. How it is done:
Anti-fibronectin antibody-coated wells: Wells of a 24-well plate were coated with an anti-fibronectin antibody. A mouse monoclonal antibody to human fibronectin was obtained from Oncogene Science (Catalog #CP13). Each well was incubated with 1 ml of antibody at a concentration of 30 μl/ml for 2 hours at room temperature. Each well was then incubated with a solution of 3% BSA in PBS for 2 hours at room temperature. Following the two incubation periods, the wells were thoroughly washed with PBS and stored at −20 C. until use.
Depleting Matrigel of Fibronectin: Matrigel was panned over eight gelatin-coated wells (as described above in Example 2) to remove most of the fibronectin and its fragments. Thereafter, the Matrigel was placed in the antibody-coated wells to remove any remaining fragments of fibronectin which contain the cell-binding domain but not the gelatin-binding domain. The Matrigel was incubated in an ice bucket on an orbital shaker at 4 C. for 2 hours. Once the Matrigel was depleted, it was collected in Eppendorf tubes. The firbonectin-depleted Matrigel was plated on a 48-well plate (150 μl/well), sterilized under a UV light for 10 minutes and incubated at 37 C. overnight. The Matrigel formed a gel and the following day, cells were added to the wells. […]

Where no end group is shown, it is not given here. [ ]: non-standard residue; d: D form. hCys = N[C@@H](CCS)C(=O)O

As for “intact plasma fibronectin: purified bovine plasma fibronectin (Sigma); a significant component of serum”, in assay [1], the “stimulation of fibroblast invasion of basement membranes in vitro” value is listed as “fails to stimulate fibroblast invasion”. Also, the “induction of invasion of the SU-ECM substrate” value in assay [2] and in assay [3] was “induced to invade” throughout.

On to “PHS(hC)N: homo-cysteine containing peptide (PHS[hCys]N)”, for which the “inhibition of serum-induced invasion of SU-ECM” value is recorded as “completely inhibits invasion” in assay [4] (higher concentrations) and “substantially inhibits invasion” in assay [4] (lower concentrations).

For the substance Pro-His-Ser-Arg-Asn (PHSRN), the “restoration of DU-145 invasiveness on depleted Matrigel” value in assay [5] is given as “sufficient to restore the full DU-145 invasiveness”. Further, the “stimulation of keratinocyte invasion” value in the assay with keratinocytes was “stimulate keratinocyte invasion”. The “stimulation of fibroblast invasion of basement membranes in vitro” value in assay [1] was “sufficient to stimulate fibroblast invasion”. The “induction of fibroblast invasion of SU-ECM” value in assay [1] (serum-free SU-ECM) is “induced”. For the same substance, the “induction of invasion of the SU-ECM substrate” value in assay [2] and in assay [3] was “induced to invade” each time. The “induction of fibroblast invasiveness on depleted Matrigel” value in assay [6] is on record as “invasiveness of the fibroblasts could be induced”.
